Assay results from ChEMBL document CHEMBL1201862, “PubChem BioAssay data set” (2004).
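Exposure lasted 48 hours, with cells grown in 96-well plates and compounds tested at five concentrations. GI50: concentration for 50% inhibition of growth.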 The source made the active and inactive calls. No stated cut-off is given here; in the data, active = GI50 up to about 1.1 µM and inactive = higher.

What was measured:
Test in all cases: DTP human tumour cell line panel, 48 h
[1] = test system: OVCAR-4
[2] = test system: SF-268
[3] = test system: T47D
[4] = test system: PC-3
[5] = test system: DU-145
[6] = test system: A498
[7] = test system: HCT-116
[8] = test system: UACC-62
[9] = test system: A549
[10] = test system: MOLT-4
[11] = test system: SK-MEL-2
[12] = test system: NCI/ADR-RES
[13] = test system: BT-549
[14] = test system: MDA-MB-435
[15] = test system: ACHN
[16] = test system: SF-295
[17] = test system: Hs-578T
[18] = test system: IGROV-1
[19] = test system: NCI-H460
[20] = test system: OVCAR-8
[21] = test system: NCI-H522
[22] = test system: KM12
[23] = test system: SK-MEL-5
[24] = test system: OVCAR-3
[25] = test system: COLO 205
[26] = test system: MCF7
[27] = test system: K562
[28] = test system: HT-29
[29] = test system: SW-620
[30] = test system: SN12C
[31] = test system: HOP-92
[32] = test system: RXF 393
[33] = test system: EKVX
[34] = test system: CCRF-CEM
[35] = test system: TK-10
[36] = test system: UO-31
[37] = test system: MDA-MB-231
[38] = test system: CAKI-1
[39] = test system: HCT-15
[40] = test system: OVCAR-5
[41] = test system: Malme-3M
[42] = test system: 786-0
[43] = test system: UACC-257
[44] = test system: U-251
[45] = test system: SF-539
[46] = test system: HOP-62
[47] = test system: NCI-H23
[48] = test system: SNB-75
[49] = test system: LOX IMVI
[50] = test system: NCI-H226
[51] = test system: SNB-19
[52] = test system: M14
[53] = test system: SK-OV-3
[54] = test system: RPMI-8226
[55] = test system: SK-MEL-28
[56] = test system: SR
[57] = test system: HL-60
[58] = test system: HCC 2998

## CN(C)CCCOc1nc2c(c(=O)n(C)c(=O)n2C)n1C.SC1=NC=NC2=NC=NC12
[1]
  GI50: 2.25 µM (inactive)
[2]
  GI50: 6.31 µM (inactive)
[3]
  GI50: 68.9 µM (inactive)
[4]
  GI50: 8.53 µM (inactive)
[5]
  GI50: 0.692 µM (active)
[6]
  GI50: 32.8 µM (inactive)
[7]
  GI50: 5.62 µM (inactive)
[8]
  GI50: 1.14 µM (inactive)
[9]
  GI50: 22 µM (inactive)
[10]
  GI50: 0.43 µM (active)
[11]
  GI50: 6.52 µM (inactive)
[12]
  GI50: 4.32 µM (inactive)
[13]
  GI50: 11.3 µM (inactive)
[14]
  GI50: 1.7 µM (inactive)
[15]
  GI50: 6.84 µM (inactive)
[16]
  GI50: 2.22 µM (inactive)
[17]
  GI50: 16 µM (inactive)
[18]
  GI50: 5.93 µM (inactive)
[19]
  GI50: 8.43 µM (inactive)
[20]
  GI50: 22.2 µM (inactive)
[21]
  GI50: 2.79 µM (inactive)
[22]
  GI50: 3.85 µM (inactive)
[23]
  GI50: 11.1 µM (inactive)
[24]
  GI50: 0.656 µM (active)
[25]
  GI50: 4.3 µM (inactive)
[26]
  GI50: 2.09 µM (inactive)
[27]
  GI50: 1.14 µM (inactive)
[28]
  GI50: 5.2 µM (inactive)
[29]
  GI50: 4.45 µM (inactive)
[30]
  GI50: 4.06 µM (inactive)
[31]
  GI50: > 100 µM (inactive)
[32]
  GI50: > 100 µM (inactive)
[33]
  GI50: 33.7 µM (inactive)
[34]
  GI50: 2.17 µM (inactive)
[35]
  GI50: 0.482 µM (active)
[36]
  GI50: 3.73 µM (inactive)
[37]
  GI50: 1.69 µM (inactive)
[38]
  GI50: 1.02 µM (active)
[39]
  GI50: 3.14 µM
[40]
  GI50: 23.4 µM (inactive)
[41]
  GI50: 0.634 µM (active)
[42]
  GI50: 2.41 µM (inactive)
[43]
  GI50: 6 µM (inactive)
[44]
  GI50: 18.1 µM (inactive)
[45]
  GI50: 1.7 µM (inactive)
[46]
  GI50: 18.5 µM (inactive)
[47]
  GI50: 6.71 µM (inactive)
[48]
  GI50: 6.12 µM (inactive)
[49]
  GI50: 0.303 µM (active)
[50]
  GI50: 2.15 µM (inactive)
[51]
  GI50: 88.5 µM (inactive)
[52]
  GI50: 8.38 µM (inactive)
[53]
  GI50: 23.9 µM (inactive)
[54]
  GI50: 0.757 µM (active)
[55]
  GI50: 55.5 µM (inactive)

## CCC1OC2C(CC=C(C)C)=C3OC(C)(O)C(C)(CC)C(OC(C)=O)C3=C3OC(=O)C=C1C32 (stereo unspecified)
[1]
  GI50: 32.4 µM (inactive)
[2]
  GI50: 31.4 µM (inactive)
[3]
  GI50: 37.8 µM (inactive)
[4]
  GI50: 38.8 µM (inactive)
[5]
  GI50: 39.6 µM (inactive)
[6]
  GI50: 36.7 µM (inactive)
[7]
  GI50: 25.7 µM (inactive)
[8]
  GI50: 18.8 µM (inactive)
[9]
  GI50: 31.6 µM (inactive)
[56]
  GI50: 31.8 µM (inactive)
[10]
  GI50: 22.7 µM (inactive)
[11]
  GI50: 19.9 µM (inactive)
[12]
  GI50: 29.6 µM (inactive)
[13]
  GI50: 21.5 µM (inactive)
[57]
  GI50: 75 µM (inactive)
[58]
  GI50: 24 µM (inactive)
[14]
  GI50: 21.3 µM (inactive)
[15]
  GI50: 39.6 µM (inactive)
[16]
  GI50: 17.8 µM (inactive)
[17]
  GI50: 39.7 µM (inactive)
[18]
  GI50: 26.4 µM (inactive)
[19]
  GI50: 30.9 µM (inactive)
[20]
  GI50: 35 µM (inactive)
[21]
  GI50: 16.6 µM (inactive)
[22]
  GI50: 23.1 µM (inactive)
[23]
  GI50: 20.4 µM (inactive)
[24]
  GI50: 37.8 µM (inactive)
[25]
  GI50: 28.2 µM (inactive)
[26]
  GI50: 30.1 µM (inactive)
[27]
  GI50: 32.8 µM (inactive)
[28]
  GI50: 22.8 µM (inactive)
[29]
  GI50: 53.7 µM (inactive)
[30]
  GI50: 20.4 µM (inactive)
[31]
  GI50: 59.4 µM (inactive)
[33]
  GI50: 33.3 µM (inactive)
[34]
  GI50: 36 µM (inactive)
[35]
  GI50: 34.4 µM (inactive)
[36]
  GI50: 22.6 µM (inactive)
[37]
  GI50: 19.8 µM (inactive)
[38]
  GI50: 28.2 µM (inactive)
[39]
  GI50: 37 µM
[40]
  GI50: 22 µM (inactive)
[41]
  GI50: 21.4 µM (inactive)
[42]
  GI50: 37.7 µM (inactive)
[43]
  GI50: 22.2 µM (inactive)
[44]
  GI50: 30.3 µM (inactive)
[45]
  GI50: 19.6 µM (inactive)
[46]
  GI50: 23.6 µM (inactive)
[47]
  GI50: 27.7 µM (inactive)
[48]
  GI50: 23.6 µM (inactive)
[49]
  GI50: 21.3 µM (inactive)
[51]
  GI50: 28.1 µM (inactive)
[52]
  GI50: 30.5 µM (inactive)
[53]
  GI50: 33.6 µM (inactive)
[54]
  GI50: 22.1 µM (inactive)
[55]
  GI50: 24.7 µM (inactive)
